Results from ChEMBL document CHEMBL3351799, “Bioavailable pyrrolo-benzo-1,4-diazines as Na(v)1.7 sodium channel blockers for the treatment of pain” (Bioorg Med Chem Lett, 2014).

Columns and labels:
[1] = Drug level in Sprague-Dawley rat brain after 6 hrs; type: ADME, tissue-based; settings: read-out: Drug uptake
in vivo [2] = settings: Sprague-Dawley, rat, plasma
in vivo [3] = settings: Sprague-Dawley, rat, brain/plasma

| SMILES | concentration at 6 h [1] [ng/g] | AUC at 6 h (in vivo [2]) [µM·h] | Kp at 6 h (in vivo [3]) |
| --- | --- | --- | --- |
| COc1ccc2c(c1)NC1(CCN(C(=O)c3ccc(OC)c(N(C)C)c3)CC1)c1cccn1-2 | 257 | 20.3 | 0.2 |
| COc1ccc2c(c1)NC1(CCN(C(=O)c3cccc4ncccc34)CC1)c1cccn1-2 | – | 16.2 | – |
